Literature values as cited in PubChem BioAssay AID1259409 (Chemical Carcinogenesis Research Information System (CCRIS), 2018).
Where a SMILES comes first, the peptide text is derived from it. Bridges are numbered along the chain shown (N, C = ends). [ ]: non-standard residue; d: D form.

Test system: rodent chemically induced tumor inhibition, incidence and multiplicity
Experiment: CCRIS tumor inhibitor studies
Details: Dose [Inhibitor]: 0

In the case of `CN1CCN(CCCN2c3ccccc3Sc3ccc(C(F)(F)F)cc32)CC1`, the “tumour outcome (control, treated, inhibition, significance)” value (Carcinogen: AZOXYMETHANE, 25843-45-2, 15 MG/KG BW IN OLIVE OIL 1/2 D FOR 35 WK BEGINNING WITH START OF CARCINOGEN TREATMENT (STUDY DURATION: 35 WK), Route [Inhibitor]: SUBCUTANEOUS, Species: RAT, Strain/Sex: WISTAR/MALE, Target Tissue: Type of Lesion: COLON: TUMORS, Dose [Carcinogen]: 7.4 MG/KG BW IN 0.9% SALINE 1/WK FOR 10 WK, Promoter: NONE USED) is given as 8/17 (47%), 11/17 (65%), -38%, not significant and the “tumour outcome (control, treated, inhibition, significance)” value (Carcinogen: AZOXYMETHANE, 25843-45-2, 30 MG/KG BW IN OLIVE OIL 1/2 D FOR 35 WK BEGINNING WITH START OF CARCINOGEN TREATMENT (STUDY DURATION: 35 WK), Route [Inhibitor]: SUBCUTANEOUS, Species: RAT, Strain/Sex: WISTAR/MALE, Target Tissue: Type of Lesion: COLON: TUMORS, Dose [Carcinogen]: 7.4 MG/KG BW IN 0.9% SALINE 1/WK FOR 10 WK, Promoter: NONE USED) is given as 8/17 (47%), 9/20 (45%), 4%, not significant.
In the case of `CC(C)[C@@H]1NC(=O)[C@H](CCCCN)NC(=O)[C@@H](Cc2c[nH]c3ccccc23)NC(=O)[C@H](Cc2ccc(O)cc2)NC(=O)[C@@H](NC(=O)[C@H](N)Cc2ccccc2)CSSC[C@@H](C(=O)N[C@@H](Cc2c[nH]c3ccccc23)C(N)=O)NC1=O` (H-[dF]CY[dW]KVCW-NH2; disulfide 2-7), the “tumour outcome (control, treated, inhibition, significance)” value (Carcinogen: N-BUTYL-N-(4-HYDROXYBUTYL)NITROSAMINE, 3817-11-6, 50 UG/RAT/D FOR 12 WK BEGINNING POST CARCINOGEN TREATMENT (STUDY DURATION: 17 WK), Route [Inhibitor]: SUBCUTANEOUS, Species: RAT, Strain/Sex: F344/FEMALE, Target Tissue: Type of Lesion: URINARY BLADDER: CARCINOMA IN SITU, Dose [Carcinogen]: 0.05% IN DRINKING WATER FOR 4 WK, Promoter: MITOMYCIN C, 50-07-7) is listed as 10/40 (25%), 1/20 (5%), 80%, p<0.001, the “tumour outcome (control, treated, inhibition, significance)” value (Carcinogen: N-BUTYL-N-(4-HYDROXYBUTYL)NITROSAMINE, 3817-11-6, 50 UG/RAT/D FOR 12 WK BEGINNING POST CARCINOGEN TREATMENT (STUDY DURATION: 17 WK), Route [Inhibitor]: SUBCUTANEOUS, Species: RAT, Strain/Sex: F344/FEMALE, Target Tissue: Type of Lesion: URINARY BLADDER: INVASIVE CARCINOMA, Dose [Carcinogen]: 0.05% IN DRINKING WATER FOR 4 WK, Promoter: MITOMYCIN C, 50-07-7) is listed as 12/40 (30%), 0/20 (0%), 100%, not calculated and the “tumour outcome (control, treated, inhibition, significance)” value (Carcinogen: N-BUTYL-N-(4-HYDROXYBUTYL)NITROSAMINE, 3817-11-6, 50 UG/RAT/D FOR 12 WK BEGINNING POST CARCINOGEN TREATMENT (STUDY DURATION: 17 WK), Route [Inhibitor]: SUBCUTANEOUS, Species: RAT, Strain/Sex: F344/FEMALE, Target Tissue: Type of Lesion: URINARY BLADDER: PAPILLOMA, Dose [Carcinogen]: 0.05% IN DRINKING WATER FOR 4 WK, Promoter: MITOMYCIN C, 50-07-7) is listed as 20/40 (50%), 11/20 (55%), -10%, not significant. For the same compound, the “tumour outcome (control, treated, inhibition, significance)” value (Carcinogen: N-NITROSOBIS(2-OXOPROPYL)AMINE, 60599-38-4, 35 UG/D FROM OSMOTIC PUMP FOR 2 MO, Route [Inhibitor]: SUBCUTANEOUS IMPLANT, Species: HAMSTER, Strain/Sex: SYRIAN/FEMALE, Target Tissue: Type of Lesion: PANCREAS: ADENOCARCINOMA, Promoter: NONE USED) was 12/12 (100%), 6/11 (55%), 45%, not calculated.
In the case of `NC(N)=NC(=O)c1nc(Cl)c(N)nc1N`, the “tumour outcome (control, treated, inhibition, significance)” value (Carcinogen: AZOXYMETHANE, 25843-45-2, 5 MG/KG BW 1/2 D FOR 35 WK (STUDY DURATION: 35 WK), Route [Inhibitor]: SUBCUTANEOUS, Species: RAT, Strain/Sex: WISTAR/MALE, Target Tissue: Type of Lesion: COLON: TUMOR, Dose [Carcinogen]: 7.4 MG/KG BW 1/WK FOR 10 WK, Promoter: NONE USED) is given as 15/19 (79%), 13/17 (76%), 4%, not significant, the “tumour outcome (control, treated, inhibition, significance)” value (Carcinogen: AZOXYMETHANE, 25843-45-2, 7.5 MG/KG BW 1/2 D FOR 35 WK (STUDY DURATION: 35 WK), Route [Inhibitor]: SUBCUTANEOUS, Species: RAT, Strain/Sex: WISTAR/MALE, Target Tissue: Type of Lesion: COLON: TUMOR, Dose [Carcinogen]: 7.4 MG/KG BW 1/WK FOR 10 WK, Promoter: NONE USED) is given as 15/19 (79%), 7/18 (39%), 51%, p<0.001 and the “tumour outcome (control, treated, inhibition, significance)” value (Carcinogen: N-METHYL-N'-NITRO-N-NITROSOGUANIDINE, 70-25-7, 2.5 MG/KG BW 1/2 D BEGINNING 25 WK POST FIRST CARCINOGEN DOSE AND CONTINUING FOR DURATION OF STUDY (STUDY DURATION: 5, Route [Inhibitor]: SUBCUTANEOUS, Species: RAT, Strain/Sex: WISTAR/MALE, Target Tissue: Type of Lesion: STOMACH: ADENOCARCINOMA, Dose [Carcinogen]: 50 UG/ML IN DRINKING WATER FOR 25 WK, Promoter: NONE USED) is given as 10/20 (50%), 5/17 (29%), 42%, not significant. For the same compound, the “tumour outcome (control, treated, inhibition, significance)” value (Carcinogen: N-METHYL-N'-NITRO-N-NITROSOGUANIDINE, 70-25-7, 5 MG/KG BW 1/2 D BEGINNING 25 WK POST FIRST CARCINOGEN DOSE AND CONTINUING FOR DURATION OF STUDY (STUDY DURATION: 52, Route [Inhibitor]: SUBCUTANEOUS, Species: RAT, Strain/Sex: WISTAR/MALE, Target Tissue: Type of Lesion: STOMACH: ADENOCARCINOMA, Dose [Carcinogen]: 50 UG/ML IN DRINKING WATER FOR 25 WK, Promoter: NONE USED) was 10/20 (50%), 3/20 (15%), 70%, p<0.05.
